“And” between values parts separate entries of the source, which are not always exact repeats. Equal values may be shown once.
Legend:
[1] = target: recombinant mTOR (FLAG-tagged, residues 1362-2549) (Homo sapiens, UniProt P42345); assay: In vitro mTOR kinase assay (Test (a), AlphaScreen); type: biochemical; conditions: ATP 20 μM, read-out: Test (a): IC50 versus mTOR kinase
Procedure, shortened: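 AlphaScreen read-out: a phospho-T389 p70 S6K antibody on acceptor beads captures the phosphorylated biotin-peptide on donor beads, with signal loss indicating inhibition.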

p110α Type Ia human PI3K = target: T1, p110α Type Ia human PI3K (Homo sapiens, UniProt P42336); assay: In vitro PI3K enzyme assay (Test (b), AlphaScreen), p110α; type: biochemical; conditions: ATP 4 μM, read-out: Test (b): IC50 versus p110α Type Ia human PI3K
T1 construct: full length DNA of each of the p110α, p110β and p110δ Type Ia human PI3K p110 isoforms; 6-His; made in house
Description: (b) In Vitro PI3K Enzyme Assay
The assay used AlphaScreen technology (Gray et al., Analytical Biochemistry, 2003, 313: 234-245) to determine the ability of test compounds to inhibit phosphorylation by recombinant Type I PI3K enzymes of the lipid PI(4,5)P2.
DNA fragments encoding human PI3K catalytic and regulatory subunits were isolated from cDNA libraries using standard molecular biology and PCR cloning techniques. The selected DNA fragments were used to generate baculovirus expression vectors. In particular, full length DNA of each of the p110α, p110β and p110δ Type Ia human PI3K p110 isoforms (EMBL Accession Nos. HSU79143, S67334, Y10055 for p110α, p110β and p110δ respectively) were sub-cloned into a pDEST10 vector (Invitrogen Limited, Fountain Drive, Paisley, UK). The vector is a Gateway-adapted version of Fastbac1 containing a 6-His epitope tag. […]
Biotinylated-DiC8-PI(3,4,5)P3 (50 nM; Cell Signals Inc., Catalogue No. 107), recombinant purified GST-Grp1 PH protein (2.5 nM) and AlphaScreen Anti-GST donor and acceptor beads (100 ng; Packard Bioscience Limited, Station Road, Pangbourne, Berkshire, UK, Catalogue No. 6760603M) were added and the assay plates were left for about 5 to 20 hours at room temperature in the dark. The resultant signals arising from laser light excitation at 680 nm were read using a Packard AlphaQuest instrument. […]

[2] = system: phosphorylation of Serine 473 in Akt in MDA-MB-468 human breast adenocarcinoma cells; assay: In vitro phospho-Ser473 Akt assay (Test (c)); type: cell-based; conditions: Homo sapiens, MDA-MB-468, 2 h, MDA-MB-468 cells, 2 hours incubation; read-out: Test (c): IC50 versus Serine 473 in Akt
Procedure, shortened: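 MDA-MB-468 cells (15000/well, adhered overnight) treated with compound for 2 h at 37 °C, 5% CO2. After formaldehyde fixation, permeabilisation and blocking, phospho-Akt Ser473 immunostained with Alexafluor488 secondary and quantified by laser-scanning imaging (Acumen Explorer); IC50 from fluorescence dose–response.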

recombinant mTOR (FLAG-tagged, residues 1362-2549), sequence (P42345 1362-2549): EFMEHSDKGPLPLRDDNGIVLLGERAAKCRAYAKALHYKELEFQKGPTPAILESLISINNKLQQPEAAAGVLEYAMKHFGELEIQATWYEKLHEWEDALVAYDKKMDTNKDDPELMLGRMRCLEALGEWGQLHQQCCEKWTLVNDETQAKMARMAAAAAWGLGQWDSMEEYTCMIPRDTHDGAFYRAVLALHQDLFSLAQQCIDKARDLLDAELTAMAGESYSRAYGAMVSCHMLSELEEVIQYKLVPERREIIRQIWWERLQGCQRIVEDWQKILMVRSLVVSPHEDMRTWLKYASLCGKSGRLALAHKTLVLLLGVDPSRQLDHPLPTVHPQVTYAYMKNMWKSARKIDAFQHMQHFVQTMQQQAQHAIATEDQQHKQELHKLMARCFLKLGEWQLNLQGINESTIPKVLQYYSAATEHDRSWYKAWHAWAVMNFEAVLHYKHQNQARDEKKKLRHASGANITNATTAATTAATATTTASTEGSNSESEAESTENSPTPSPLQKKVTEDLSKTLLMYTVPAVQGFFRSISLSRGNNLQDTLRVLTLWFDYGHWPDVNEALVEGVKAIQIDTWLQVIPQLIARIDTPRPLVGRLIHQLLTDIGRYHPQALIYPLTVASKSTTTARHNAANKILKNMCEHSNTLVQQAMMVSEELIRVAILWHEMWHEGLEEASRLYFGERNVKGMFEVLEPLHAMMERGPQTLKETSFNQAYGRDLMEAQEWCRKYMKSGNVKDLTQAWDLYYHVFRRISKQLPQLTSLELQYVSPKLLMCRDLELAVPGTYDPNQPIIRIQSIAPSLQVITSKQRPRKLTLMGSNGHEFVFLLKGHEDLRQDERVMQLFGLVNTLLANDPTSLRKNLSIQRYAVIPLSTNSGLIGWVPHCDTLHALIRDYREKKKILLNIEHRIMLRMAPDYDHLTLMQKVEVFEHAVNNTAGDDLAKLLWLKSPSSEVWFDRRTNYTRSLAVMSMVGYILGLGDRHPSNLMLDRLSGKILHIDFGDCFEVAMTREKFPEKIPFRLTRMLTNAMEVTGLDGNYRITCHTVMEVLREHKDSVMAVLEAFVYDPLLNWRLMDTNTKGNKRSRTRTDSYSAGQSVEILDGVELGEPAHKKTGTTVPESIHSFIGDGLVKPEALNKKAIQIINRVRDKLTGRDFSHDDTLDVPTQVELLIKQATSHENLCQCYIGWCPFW
T1 sequence (P42336 whole entry, canonical isoform): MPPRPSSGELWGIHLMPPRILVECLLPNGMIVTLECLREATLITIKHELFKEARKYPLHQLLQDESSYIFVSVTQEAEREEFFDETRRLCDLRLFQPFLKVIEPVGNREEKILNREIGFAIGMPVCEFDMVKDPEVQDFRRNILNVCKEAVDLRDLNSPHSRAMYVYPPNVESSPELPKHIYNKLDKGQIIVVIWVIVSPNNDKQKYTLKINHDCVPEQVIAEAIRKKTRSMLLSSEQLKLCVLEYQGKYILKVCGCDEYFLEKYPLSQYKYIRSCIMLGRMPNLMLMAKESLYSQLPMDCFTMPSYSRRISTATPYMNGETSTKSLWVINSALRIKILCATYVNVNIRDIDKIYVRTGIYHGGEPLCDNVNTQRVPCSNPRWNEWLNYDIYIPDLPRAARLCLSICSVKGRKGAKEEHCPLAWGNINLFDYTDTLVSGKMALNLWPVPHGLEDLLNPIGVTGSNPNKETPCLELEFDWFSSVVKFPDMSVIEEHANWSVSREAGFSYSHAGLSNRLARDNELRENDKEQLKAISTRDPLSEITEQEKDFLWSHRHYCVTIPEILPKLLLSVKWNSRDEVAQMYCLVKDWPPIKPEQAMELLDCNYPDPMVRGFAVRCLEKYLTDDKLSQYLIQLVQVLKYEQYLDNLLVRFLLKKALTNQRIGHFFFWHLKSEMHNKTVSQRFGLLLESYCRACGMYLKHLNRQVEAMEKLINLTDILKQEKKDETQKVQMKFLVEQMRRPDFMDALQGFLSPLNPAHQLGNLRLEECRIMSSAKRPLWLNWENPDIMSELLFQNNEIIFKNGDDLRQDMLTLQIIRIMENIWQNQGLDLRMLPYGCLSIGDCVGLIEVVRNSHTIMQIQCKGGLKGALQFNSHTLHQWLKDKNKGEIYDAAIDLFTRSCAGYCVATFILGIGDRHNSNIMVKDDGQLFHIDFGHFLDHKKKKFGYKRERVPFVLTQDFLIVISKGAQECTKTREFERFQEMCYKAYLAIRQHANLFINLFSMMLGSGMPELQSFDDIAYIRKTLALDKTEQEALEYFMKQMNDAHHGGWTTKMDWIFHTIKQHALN
T1 sequence (P27986 whole entry partner, canonical isoform): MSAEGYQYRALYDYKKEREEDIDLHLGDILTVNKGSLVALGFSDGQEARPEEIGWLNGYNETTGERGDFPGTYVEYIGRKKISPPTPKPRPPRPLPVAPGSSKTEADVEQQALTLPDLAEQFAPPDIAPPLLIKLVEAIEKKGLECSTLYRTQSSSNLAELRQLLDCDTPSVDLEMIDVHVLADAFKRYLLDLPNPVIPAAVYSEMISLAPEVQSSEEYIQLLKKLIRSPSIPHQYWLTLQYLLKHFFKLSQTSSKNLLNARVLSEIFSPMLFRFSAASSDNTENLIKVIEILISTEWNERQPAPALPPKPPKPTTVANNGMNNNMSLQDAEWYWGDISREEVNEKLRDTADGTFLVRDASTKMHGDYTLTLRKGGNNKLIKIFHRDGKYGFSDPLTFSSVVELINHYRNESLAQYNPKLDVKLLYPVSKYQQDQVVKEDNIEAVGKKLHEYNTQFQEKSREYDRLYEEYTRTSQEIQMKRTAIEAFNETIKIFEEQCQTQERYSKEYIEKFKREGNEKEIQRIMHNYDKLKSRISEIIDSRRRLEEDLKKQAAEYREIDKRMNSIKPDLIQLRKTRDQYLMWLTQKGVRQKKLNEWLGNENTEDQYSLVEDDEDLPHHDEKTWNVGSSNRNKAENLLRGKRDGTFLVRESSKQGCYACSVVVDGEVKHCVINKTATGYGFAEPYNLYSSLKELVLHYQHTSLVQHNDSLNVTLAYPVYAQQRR

| SMILES | IC50 [1] | IC50 (p110α Type Ia human PI3K) | IC50 [2] [µM] |
| --- | --- | --- | --- |
| Cc1cc(NC(=O)Nc2ccc(-c3nc(CS(C)(=O)=O)cc(N4CCOCC4)n3)cc2)no1 [Example 34b, 1-(5-methyl-1,2-oxazol-3-yl)-3-[4-[4-(methylsulfonylmethyl)-6-morpholin-4-yl-pyrimidin-2-yl]phenyl]urea] | 0.12 µM and 0.155 µM and 0.093 µM | 91.2 µM and 57.8 µM |  |
| C[C@@H]1CN(C(=O)c2cc(N3CCOC[C@@H]3C)nc(-c3ccc(NC(=O)NC4CC4)cc3)n2)C[C@H](C)O1 [Example 63c, 3-cyclopropyl-1-[4-[4-[(2R,6S)-2,6-dimethylmorpholine-4-carbonyl]-6-[(3S)-3-methylmorpholin-4-yl]pyrimidin-2-yl]phenyl]urea] |  |  | 0.26 |
| C[C@H]1COCCN1c1cc(C(C)(C)S(=O)(=O)C(C)(C)C)nc(-c2ccc(NC(=O)NC3CC3)cc2)n1 [Example 66c, 3-cyclopropyl-1-[4-[4-[(3S)-3-methylmorpholin-4-yl]-6-(2-tert-butylsulfonylpropan-2-yl)pyrimidin-2-yl]phenyl]urea] |  |  | 0.15 |
| C[C@H]1COCCN1c1cc(C(C)(C)S(=O)(=O)C(C)(C)C)nc(-c2ccc(NC(=O)NC3CCC3)cc2)n1 [Example 66d, 3-cyclobutyl-1-[4-[4-[(3S)-3-methylmorpholin-4-yl]-6-(2-tert-butylsulfonylpropan-2-yl)pyrimidin-2-yl]phenyl]urea] |  |  | 0.16 |
| CCNC(=O)Nc1ccc(-c2nc(N3CCOC[C@@H]3C)cc(C(C)(C)S(=O)(=O)C(C)(C)C)n2)cc1 [Example 66e, 3-ethyl-1-[4-[4-[(3S)-3-methylmorpholin-4-yl]-6-(2-tert-butylsulfonylpropan-2-yl)pyrimidin-2-yl]phenyl]urea] |  |  | 0.26 |
| C[C@H]1COCCN1c1cc(C(C)(C)S(=O)(=O)C(C)(C)C)nc(-c2ccc(NC(=O)NCCN(C)C)cc2)n1 [Example 66f, 3-(2-dimethylaminoethyl)-1-[4-[4-[(3S)-3-methylmorpholin-4-yl]-6-(2-tert-butylsulfonylpropan-2-yl)pyrimidin-2-yl]phenyl]urea] |  |  | 0.04 |
| C[C@H]1COCCN1c1cc(C(C)(C)S(=O)(=O)C(C)(C)C)nc(-c2ccc(NC(=O)NCCO)cc2)n1 [Example 66g, 3-(2-hydroxyethyl)-1-[4-[4-[(3S)-3-methylmorpholin-4-yl]-6-(2-tert-butylsulfonylpropan-2-yl)pyrimidin-2-yl]phenyl]urea] |  |  | 0.3 |
